Source: PubChem BioAssay (NCI)
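Where inhibition never reached the appropriate level, the endpoint shown equals the highest concentration tested. Otherwise, values were interpolated linearly from a five-concentration, 48-hour dose response in 96-well plates. TGI denotes the concentration required for complete inhibition of growth.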

Legend:
Test in all cases: growth of human tumour cells (NCI), 48 h
ACHN renal = system: ACHN renal
IGROV1 ovarian = system: IGROV1 ovarian
PC-3 prostate = system: PC-3 prostate
A498 renal = system: A498 renal
SK-MEL-5 melanoma = system: SK-MEL-5 melanoma
T-47D breast = system: T-47D breast
KM12 colon = system: KM12 colon
HL-60(TB) leukemia = system: HL-60(TB) leukemia
LOX IMVI melanoma = system: LOX IMVI melanoma
BT-549 breast = system: BT-549 breast
SF-295 CNS = system: SF-295 CNS
HCT-116 colon = system: HCT-116 colon
DU-145 prostate = system: DU-145 prostate
SF-539 CNS = system: SF-539 CNS
RXF 393 renal = system: RXF 393 renal
UACC-62 melanoma = system: UACC-62 melanoma
MCF7 breast = system: MCF7 breast
SN12C renal = system: SN12C renal
U251 CNS = system: U251 CNS
UACC-257 melanoma = system: UACC-257 melanoma
HOP-62 NSCLC = system: HOP-62 NSCLC
NCI-H23 lung = system: NCI-H23 lung
HOP-92 NSCLC = system: HOP-92 NSCLC
SK-OV-3 ovarian = system: SK-OV-3 ovarian
HS 578T breast = system: HS 578T breast
NCI-H522 lung = system: NCI-H522 lung
SK-MEL-2 melanoma = system: SK-MEL-2 melanoma
OVCAR-3 ovarian = system: OVCAR-3 ovarian
UO-31 renal = system: UO-31 renal
OVCAR-8 ovarian = system: OVCAR-8 ovarian
HCC-2998 colon = system: HCC-2998 colon
SNB-19 CNS = system: SNB-19 CNS
SNB-75 CNS = system: SNB-75 CNS
COLO 205 colon = system: COLO 205 colon
K-562 leukemia = system: K-562 leukemia
EKVX NSCLC = system: EKVX NSCLC
MDA-N = system: MDA-N
HCT-15 colon = system: HCT-15 colon
RPMI-8226 leukemia = system: RPMI-8226 leukemia
SF-268 CNS = system: SF-268 CNS
NCI/ADR-RES ovarian = system: NCI/ADR-RES ovarian
MALME-3M melanoma = system: MALME-3M melanoma
MOLT-4 leukemia = system: MOLT-4 leukemia
NCI-H226 lung = system: NCI-H226 lung
MDA-MB-435 = system: MDA-MB-435
SK-MEL-28 melanoma = system: SK-MEL-28 melanoma
SR leukemia = system: SR leukemia
MDA-MB-231 breast = system: MDA-MB-231 breast
CCRF-CEM leukemia = system: CCRF-CEM leukemia
SW-620 colon = system: SW-620 colon
A549 NSCLC = system: A549 NSCLC
CAKI-1 renal = system: CAKI-1 renal
HT29 colon = system: HT29 colon
OVCAR-5 ovarian = system: OVCAR-5 ovarian
OVCAR-4 ovarian = system: OVCAR-4 ovarian
M14 melanoma = system: M14 melanoma
NCI-H460 lung = system: NCI-H460 lung
TK-10 renal = system: TK-10 renal
786-0 renal = system: 786-0 renal

Q: Which results are given for `S=C1Cc2cc3ccccc3nc2-c2ccccc2N1`?
A: TGI (ACHN renal): 41.4 µM; TGI (IGROV1 ovarian): 65.1 µM; TGI (PC-3 prostate): 80.7 µM; TGI (A498 renal): 18.6 µM; TGI (SK-MEL-5 melanoma): > 100 µM; TGI (T-47D breast): 28.7 µM; TGI (KM12 colon): > 100 µM; TGI (HL-60(TB) leukemia): > 100 µM; TGI (LOX IMVI melanoma): > 69.8 µM; TGI (BT-549 breast): > 59.1 µM; TGI (SF-295 CNS): 42.2 µM; TGI (HCT-116 colon): 30.8 µM; TGI (DU-145 prostate): > 100 µM; TGI (SF-539 CNS): 29.4 µM; TGI (RXF 393 renal): 24.9 µM; TGI (UACC-62 melanoma): 25.7 µM; TGI (MCF7 breast): > 79 µM; TGI (SN12C renal): 32.6 µM; TGI (U251 CNS): 28.3 µM; TGI (UACC-257 melanoma): 65.5 µM; TGI (HOP-62 NSCLC): 30.7 µM; TGI (NCI-H23 lung): 41.6 µM; TGI (HOP-92 NSCLC): 20.2 µM; TGI (SK-OV-3 ovarian): 15.4 µM; TGI (HS 578T breast): > 63.7 µM; TGI (NCI-H522 lung): 43.1 µM; TGI (SK-MEL-2 melanoma): 61.8 µM; TGI (OVCAR-3 ovarian): 27.9 µM; TGI (UO-31 renal): 24.1 µM; TGI (OVCAR-8 ovarian): 31.2 µM; TGI (HCC-2998 colon): 36 µM; TGI (SNB-19 CNS): > 47.4 µM; TGI (SNB-75 CNS): 17.5 µM; TGI (COLO 205 colon): > 100 µM; TGI (K-562 leukemia): > 100 µM; TGI (EKVX NSCLC): 79.2 µM; TGI (MDA-N): > 100 µM; TGI (HCT-15 colon): > 87.3 µM; TGI (RPMI-8226 leukemia): > 100 µM; TGI (SF-268 CNS): 91.6 µM; TGI (NCI/ADR-RES ovarian): 29 µM; TGI (MALME-3M melanoma): 47.6 µM; TGI (MOLT-4 leukemia): > 100 µM; TGI (NCI-H226 lung): 46.9 µM; TGI (MDA-MB-435): > 68.2 µM; TGI (SK-MEL-28 melanoma): > 59.1 µM; TGI (SR leukemia): > 100 µM; TGI (MDA-MB-231 breast): 27 µM; TGI (CCRF-CEM leukemia): > 100 µM; TGI (SW-620 colon): > 70.4 µM; TGI (A549 NSCLC): > 64.8 µM; TGI (CAKI-1 renal): 54.5 µM; TGI (HT29 colon): > 100 µM; TGI (OVCAR-5 ovarian): > 91.9 µM; TGI (OVCAR-4 ovarian): > 40.4 µM; TGI (M14 melanoma): > 64.2 µM; TGI (NCI-H460 lung): > 51.2 µM; TGI (TK-10 renal): 44.6 µM; TGI (786-0 renal): 28.4 µM

Q: `COc1ccc(CNC(=O)[C@H](Cc2ccc(O)cn2)NC(C)=O)cc1OC` was tested. Which TGI (ACHN renal) did it give?
A: > 100 µM

Q: And the TGI (IGROV1 ovarian)?
A: > 100 µM

Q: What about the TGI (PC-3 prostate) of the same molecule?
A: > 100 µM

Q: What about the TGI (A498 renal) of the same molecule?
A: > 100 µM

Q: And the TGI (SK-MEL-5 melanoma)?
A: > 100 µM

Q: And the TGI (T-47D breast)?
A: > 100 µM

Q: What about the TGI (KM12 colon) of the same molecule?
A: > 100 µM

Q: And the TGI (HL-60(TB) leukemia)?
A: > 100 µM

Q: And the TGI (LOX IMVI melanoma)?
A: > 100 µM

Q: What about the TGI (BT-549 breast) of the same molecule?
A: > 100 µM

Q: And the TGI (SF-295 CNS)?
A: > 100 µM

Q: What about the TGI (HCT-116 colon) of the same molecule?
A: > 100 µM

Q: What about the TGI (DU-145 prostate) of the same molecule?
A: > 100 µM

Q: And the TGI (SF-539 CNS)?
A: > 100 µM

Q: What about the TGI (RXF 393 renal) of the same molecule?
A: > 100 µM

Q: And the TGI (UACC-62 melanoma)?
A: > 100 µM

Q: What about the TGI (MCF7 breast) of the same molecule?
A: > 100 µM

Q: What about the TGI (SN12C renal) of the same molecule?
A: > 100 µM

Q: What about the TGI (U251 CNS) of the same molecule?
A: > 100 µM

Q: And the TGI (UACC-257 melanoma)?
A: > 100 µM

Q: What about the TGI (HOP-62 NSCLC) of the same molecule?
A: > 100 µM

Q: And the TGI (NCI-H23 lung)?
A: > 100 µM

Q: And the TGI (HOP-92 NSCLC)?
A: > 100 µM

Q: What about the TGI (SK-OV-3 ovarian) of the same molecule?
A: > 100 µM

Q: What about the TGI (HS 578T breast) of the same molecule?
A: > 100 µM

Q: What about the TGI (NCI-H522 lung) of the same molecule?
A: > 100 µM

Q: What about the TGI (SK-MEL-2 melanoma) of the same molecule?
A: > 100 µM

Q: What about the TGI (OVCAR-3 ovarian) of the same molecule?
A: > 100 µM

Q: And the TGI (UO-31 renal)?
A: > 100 µM

Q: What about the TGI (OVCAR-8 ovarian) of the same molecule?
A: > 100 µM

Q: What about the TGI (HCC-2998 colon) of the same molecule?
A: > 100 µM

Q: And the TGI (SNB-19 CNS)?
A: > 100 µM

Q: And the TGI (SNB-75 CNS)?
A: > 100 µM

Q: And the TGI (COLO 205 colon)?
A: > 100 µM

Q: What about the TGI (K-562 leukemia) of the same molecule?
A: > 100 µM

Q: And the TGI (EKVX NSCLC)?
A: > 100 µM

Q: What about the TGI (MDA-N) of the same molecule?
A: > 100 µM

Q: And the TGI (HCT-15 colon)?
A: > 100 µM

Q: What about the TGI (RPMI-8226 leukemia) of the same molecule?
A: > 100 µM

Q: And the TGI (SF-268 CNS)?
A: > 100 µM

Q: And the TGI (NCI/ADR-RES ovarian)?
A: > 100 µM

Q: What about the TGI (MALME-3M melanoma) of the same molecule?
A: > 100 µM

Q: What about the TGI (MOLT-4 leukemia) of the same molecule?
A: > 100 µM

Q: What about the TGI (NCI-H226 lung) of the same molecule?
A: > 100 µM

Q: What about the TGI (MDA-MB-435) of the same molecule?
A: > 100 µM

Q: And the TGI (SK-MEL-28 melanoma)?
A: > 100 µM

Q: And the TGI (SR leukemia)?
A: > 100 µM

Q: And the TGI (MDA-MB-231 breast)?
A: > 100 µM

Q: And the TGI (CCRF-CEM leukemia)?
A: > 100 µM

Q: And the TGI (SW-620 colon)?
A: > 100 µM

Q: What about the TGI (A549 NSCLC) of the same molecule?
A: > 100 µM

Q: And the TGI (CAKI-1 renal)?
A: > 100 µM

Q: What about the TGI (HT29 colon) of the same molecule?
A: > 100 µM

Q: What about the TGI (OVCAR-5 ovarian) of the same molecule?
A: > 100 µM

Q: And the TGI (OVCAR-4 ovarian)?
A: > 100 µM

Q: What about the TGI (M14 melanoma) of the same molecule?
A: > 100 µM

Q: And the TGI (NCI-H460 lung)?
A: > 100 µM

Q: And the TGI (TK-10 renal)?
A: > 100 µM

Q: And the TGI (786-0 renal)?
A: > 100 µM
